Measured values from ChEMBL document CHEMBL6103575, “Design, synthesis and evaluation of (E)-1-(4-(2-(1H-pyrazol-5-yl)vinyl)phenyl) derivatives as next generation selective RET inhibitors overcoming RET solvent front mutations (G810C/R)” (Eur J Med Chem, 2025).

Key:
[1] = Induction of cell cycle arrest in mouse BaF3 cells harboring CCDC6-RET G810R mutant assessed as accumulation of cells at G2/M phase at 10 nM incubated for 24 hrs by propidium iodide staining based analysis (reference value: 33.61%); type: functional
BaF3 [2] = test: Antiproliferative activity against mouse BaF3 cells harbouring CCDC6-RET G810C mutant assessed as inhibition of cell proliferation incubated for 72 hrs by CCK-8 assay; type: functional, cell-based; settings: BaF3, 72 h
[3] = target: Platelet-derived growth factor receptor alpha (Homo sapiens, UniProt P16234); test: Inhibition of PDGFRalpha (unknown origin) at 1 uM relative to control
Chain of Platelet-derived growth factor receptor alpha (P16234 whole entry): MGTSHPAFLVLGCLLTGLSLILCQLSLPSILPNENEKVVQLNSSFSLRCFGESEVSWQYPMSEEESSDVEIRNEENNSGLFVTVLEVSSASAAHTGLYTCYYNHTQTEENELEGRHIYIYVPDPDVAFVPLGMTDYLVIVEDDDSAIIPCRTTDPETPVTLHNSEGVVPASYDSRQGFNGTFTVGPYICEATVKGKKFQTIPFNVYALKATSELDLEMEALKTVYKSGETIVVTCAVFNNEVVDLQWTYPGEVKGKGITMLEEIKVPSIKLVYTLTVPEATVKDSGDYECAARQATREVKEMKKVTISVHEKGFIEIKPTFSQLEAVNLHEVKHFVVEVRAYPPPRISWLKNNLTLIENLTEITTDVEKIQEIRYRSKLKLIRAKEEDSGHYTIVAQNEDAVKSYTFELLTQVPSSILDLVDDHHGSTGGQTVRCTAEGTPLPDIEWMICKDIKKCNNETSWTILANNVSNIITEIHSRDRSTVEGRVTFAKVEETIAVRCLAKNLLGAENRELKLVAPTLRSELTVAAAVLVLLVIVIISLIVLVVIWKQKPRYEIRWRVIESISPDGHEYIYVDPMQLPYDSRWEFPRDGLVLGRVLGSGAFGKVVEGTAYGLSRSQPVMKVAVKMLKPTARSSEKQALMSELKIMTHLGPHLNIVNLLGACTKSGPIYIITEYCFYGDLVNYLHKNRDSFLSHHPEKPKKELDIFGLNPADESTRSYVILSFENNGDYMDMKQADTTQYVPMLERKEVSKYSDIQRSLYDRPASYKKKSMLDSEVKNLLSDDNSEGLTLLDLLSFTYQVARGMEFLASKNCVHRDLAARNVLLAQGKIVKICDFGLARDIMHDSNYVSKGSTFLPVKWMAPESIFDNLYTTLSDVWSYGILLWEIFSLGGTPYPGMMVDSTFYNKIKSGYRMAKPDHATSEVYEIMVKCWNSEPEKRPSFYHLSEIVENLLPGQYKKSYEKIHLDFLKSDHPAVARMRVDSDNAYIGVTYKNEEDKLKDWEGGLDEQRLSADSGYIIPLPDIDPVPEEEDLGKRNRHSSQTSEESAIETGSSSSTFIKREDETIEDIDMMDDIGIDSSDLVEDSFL

[4] = target: Proto-oncogene tyrosine-protein kinase receptor Ret (Homo sapiens, UniProt P07949, G810C); test: Inhibition of RET (unknown origin) G810C mutant
Chain of Proto-oncogene tyrosine-protein kinase receptor Ret (Homo sapiens, UniProt P07949, G810C) (P07949 29-1114 G810C limits assumed): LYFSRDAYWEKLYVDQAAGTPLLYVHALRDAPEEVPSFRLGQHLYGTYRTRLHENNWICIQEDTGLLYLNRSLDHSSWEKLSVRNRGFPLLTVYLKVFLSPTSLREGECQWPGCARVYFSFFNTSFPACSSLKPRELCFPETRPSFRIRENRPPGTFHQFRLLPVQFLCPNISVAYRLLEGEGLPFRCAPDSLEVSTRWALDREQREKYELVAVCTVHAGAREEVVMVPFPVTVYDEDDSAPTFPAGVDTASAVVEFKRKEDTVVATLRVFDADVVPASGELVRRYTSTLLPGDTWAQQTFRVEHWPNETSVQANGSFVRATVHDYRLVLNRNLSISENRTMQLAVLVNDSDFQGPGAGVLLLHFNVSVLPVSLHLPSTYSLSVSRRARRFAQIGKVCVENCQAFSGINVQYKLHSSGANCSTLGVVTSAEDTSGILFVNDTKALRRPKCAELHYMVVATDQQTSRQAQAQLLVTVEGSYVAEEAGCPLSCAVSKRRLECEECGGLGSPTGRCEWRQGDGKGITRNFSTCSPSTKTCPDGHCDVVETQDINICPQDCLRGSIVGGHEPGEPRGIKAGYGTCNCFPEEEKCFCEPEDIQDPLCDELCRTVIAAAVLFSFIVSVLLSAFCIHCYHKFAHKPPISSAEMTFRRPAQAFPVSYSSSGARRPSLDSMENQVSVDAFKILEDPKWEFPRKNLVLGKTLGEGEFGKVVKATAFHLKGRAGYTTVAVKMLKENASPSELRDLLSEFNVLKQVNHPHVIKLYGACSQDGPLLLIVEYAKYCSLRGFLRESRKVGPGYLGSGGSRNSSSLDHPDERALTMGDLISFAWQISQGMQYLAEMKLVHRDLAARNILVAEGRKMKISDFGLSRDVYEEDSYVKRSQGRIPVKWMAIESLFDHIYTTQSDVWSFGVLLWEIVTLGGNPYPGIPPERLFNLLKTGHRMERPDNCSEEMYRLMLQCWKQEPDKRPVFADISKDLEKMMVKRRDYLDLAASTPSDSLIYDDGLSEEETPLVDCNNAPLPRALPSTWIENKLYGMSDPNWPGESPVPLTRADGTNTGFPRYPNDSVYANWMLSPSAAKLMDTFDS

[5] = target: Proto-oncogene tyrosine-protein kinase receptor Ret (Homo sapiens, UniProt P07949, G810R); test: Inhibition of RET (unknown origin) G810R mutant
Chain of Proto-oncogene tyrosine-protein kinase receptor Ret (Homo sapiens, UniProt P07949, G810R) (P07949 29-1114 G810R limits assumed): as the sequence (P07949 29-1114 G810C limits assumed) above, with C782R counted along it

[6] = target: BDNF/NT-3 growth factors receptor (Homo sapiens, UniProt Q16620); test: Inhibition of TRKB (unknown origin)
Chain of BDNF/NT-3 growth factors receptor (Q16620 whole entry): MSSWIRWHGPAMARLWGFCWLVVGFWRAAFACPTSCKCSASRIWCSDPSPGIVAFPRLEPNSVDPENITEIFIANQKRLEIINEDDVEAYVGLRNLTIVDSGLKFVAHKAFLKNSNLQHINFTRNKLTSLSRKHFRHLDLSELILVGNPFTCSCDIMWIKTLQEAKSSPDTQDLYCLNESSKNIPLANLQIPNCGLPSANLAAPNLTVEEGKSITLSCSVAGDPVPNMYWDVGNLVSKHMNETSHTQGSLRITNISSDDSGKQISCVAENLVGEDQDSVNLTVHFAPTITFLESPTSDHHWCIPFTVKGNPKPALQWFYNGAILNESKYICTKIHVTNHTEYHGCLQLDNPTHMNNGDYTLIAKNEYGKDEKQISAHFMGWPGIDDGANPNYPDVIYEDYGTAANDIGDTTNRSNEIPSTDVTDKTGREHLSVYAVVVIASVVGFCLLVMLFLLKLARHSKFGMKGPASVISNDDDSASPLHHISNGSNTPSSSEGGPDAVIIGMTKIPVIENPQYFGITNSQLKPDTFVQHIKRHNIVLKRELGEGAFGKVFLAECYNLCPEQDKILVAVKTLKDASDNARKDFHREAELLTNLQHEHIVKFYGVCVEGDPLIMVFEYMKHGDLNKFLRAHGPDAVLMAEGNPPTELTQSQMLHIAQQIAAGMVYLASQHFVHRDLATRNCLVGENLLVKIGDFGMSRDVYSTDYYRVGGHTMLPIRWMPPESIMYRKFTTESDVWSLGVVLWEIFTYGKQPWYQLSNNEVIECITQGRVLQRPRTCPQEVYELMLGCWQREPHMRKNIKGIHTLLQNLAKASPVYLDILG

[7] = Induction of apoptosis in mouse BaF3 cells harboring CCDC6-RET assessed as viable cells at 30 nM incubated for 48 hrs by Annexin V-PE staining based flow cytometry analysis (Rvb =91.16%); type: functional; settings: read-out: Activity
[8] = Induction of apoptosis in mouse BaF3 cells harboring CCDC6-RET assessed as necrotic cells at 30 nM incubated for 48 hrs by Annexin V-PE staining based flow cytometry analysis (Rvb =0.19%); type: functional
[9] = Induction of apoptosis in mouse BaF3 cells harboring CCDC6-RET assessed as viable cells at 100 nM incubated for 48 hrs by Annexin V-PE staining based flow cytometry analysis (Rvb =91.16%); type: functional; settings: read-out: Activity
[10] = Induction of apoptosis in mouse BaF3 cells harboring CCDC6-RET assessed as viable cells at 300 nM incubated for 48 hrs by Annexin V-PE staining based flow cytometry analysis (Rvb =91.16%); type: functional; settings: read-out: Activity
[11] = Induction of apoptosis in mouse BaF3 cells harboring CCDC6-RET G810C mutant assessed as early apoptotic cells at 30 nM incubated for 48 hrs by Annexin V-PE staining based flow cytometry analysis (Rvb =8.74%); type: functional
[12] = Induction of apoptosis in mouse BaF3 cells harboring CCDC6-RET G810C mutant assessed as necrotic cells at 30 nM incubated for 48 hrs by Annexin V-PE staining based flow cytometry analysis (Rvb =0.48%); type: functional
[13] = Induction of apoptosis in mouse BaF3 cells harboring CCDC6-RET G810C mutant assessed as late apoptotic cells at 100 nM incubated for 48 hrs by Annexin V-PE staining based flow cytometry analysis (Rvb =4.30%); type: functional
[14] = Induction of apoptosis in mouse BaF3 cells harboring CCDC6-RET G810C mutant assessed as viable cells at 300 nM incubated for 48 hrs by Annexin V-PE staining based flow cytometry analysis (Rvb =86.47%); type: functional; settings: read-out: Activity
[15] = Induction of apoptosis in mouse BaF3 cells harboring CCDC6-RET G810R mutant assessed as late apoptotic cells at 10 nM incubated for 48 hrs by Annexin V-PE staining based flow cytometry analysis (Rvb =3.21%); type: functional
[16] = Induction of apoptosis in mouse BaF3 cells harboring CCDC6-RET G810R mutant assessed as viable cells at 100 nM incubated for 48 hrs by Annexin V-PE staining based flow cytometry analysis (Rvb =86.40%); type: functional; settings: read-out: Activity
[17] = Induction of apoptosis in mouse BaF3 cells harboring CCDC6-RET G810R mutant assessed as necrotic cells at 300 nM incubated for 48 hrs by Annexin V-PE staining based flow cytometry analysis (Rvb =0.30%); type: functional
[18] = Induction of cell cycle arrest in mouse BaF3 cells harboring CCDC6-RET assessed as accumulation of cells at S phase at 10 nM incubated for 24 hrs by propidium iodide staining based analysis (reference value: 13.27%); type: functional
[19] = Induction of cell cycle arrest in mouse BaF3 cells harboring CCDC6-RET assessed as accumulation of cells at G2/M phase at 10 nM incubated for 24 hrs by propidium iodide staining based analysis (reference value: 34.11%); type: functional
[20] = Induction of cell cycle arrest in mouse BaF3 cells harboring CCDC6-RET assessed as accumulation of cells at G0/G1 phase at 100 nM incubated for 24 hrs by propidium iodide staining based analysis (reference value: 52.51%); type: functional
[21] = Induction of cell cycle arrest in mouse BaF3 cells harboring CCDC6-RET assessed as accumulation of cells at S phase at 300 nM incubated for 24 hrs by propidium iodide staining based analysis (reference value: 13.27%); type: functional
[22] = Induction of cell cycle arrest in mouse BaF3 cells harboring CCDC6-RET G810C mutant assessed as accumulation of cells at G2/M phase at 10 nM incubated for 24 hrs by propidium iodide staining based analysis (reference value: 34.75%); type: functional
[23] = Induction of cell cycle arrest in mouse BaF3 cells harboring CCDC6-RET G810C mutant assessed as accumulation of cells at S phase at 100 nM incubated for 24 hrs by propidium iodide staining based analysis (reference value: 12.47%); type: functional
[24] = Induction of cell cycle arrest in mouse BaF3 cells harboring CCDC6-RET G810C mutant assessed as accumulation of cells at S phase at 300 nM incubated for 24 hrs by propidium iodide staining based analysis (reference value: 12.47%); type: functional
[25] = Induction of cell cycle arrest in mouse BaF3 cells harboring CCDC6-RET G810C mutant assessed as accumulation of cells at G2/M phase at 300 nM incubated for 24 hrs by propidium iodide staining based analysis (reference value: 34.75%); type: functional
[26] = Induction of cell cycle arrest in mouse BaF3 cells harboring CCDC6-RET G810R mutant assessed as accumulation of cells at G0/G1 phase at 10 nM incubated for 24 hrs by propidium iodide staining based analysis (reference value: 52.63%); type: functional
[27] = Induction of cell cycle arrest in mouse BaF3 cells harboring CCDC6-RET G810R mutant assessed as accumulation of cells at S phase at 10 nM incubated for 24 hrs by propidium iodide staining based analysis (reference value: 13.66%); type: functional
[28] = Induction of cell cycle arrest in mouse BaF3 cells harboring CCDC6-RET G810R mutant assessed as accumulation of cells at G0/G1 phase at 100 nM incubated for 24 hrs by propidium iodide staining based analysis (reference value: 52.63%); type: functional
[29] = Induction of cell cycle arrest in mouse BaF3 cells harboring CCDC6-RET G810R mutant assessed as accumulation of cells at S phase at 300 nM incubated for 24 hrs by propidium iodide staining based analysis (reference value: 13.66%); type: functional
BaF3 [30] = test: Inhibition of SHC phosphorylation in mouse BaF3 cells harboring CCDC6-RET incubated for 12 hrs by Western blotting analysis; type: cell-based; settings: dose <= 300.0 nM

IC50 (BaF3 [2]): 0.0257 µM
inhibition [3]: 101%
IC50 [4]: 0.0071 µM
IC50 [5]: 0.0324 µM
IC50 [6]: 0.0867 µM
SMILES: COc1cncc(-c2cn[nH]c2/C=C/c2ccc(NC(=O)Nc3cc(C(C)(C)C(F)(F)F)on3)c(Cl)c2)c1
Activity [1]: 32.33%
viability at 0.03 µM [7]: 76.8%
Activity [8]: 0.03%
viability at 0.1 µM [9]: 24%
viability at 0.3 µM [10]: 13.9%
Activity [11]: 9.54%
Activity [12]: 0.47%
Activity [13]: 1.87%
viability at 0.3 µM [14]: 8.22%
Activity [15]: 3.29%
viability at 0.1 µM [16]: 74%
Activity [17]: 0.07%
Activity [18]: 13.37%
Activity [19]: 32.46%
Activity [20]: 69.43%
Activity [21]: 3.34%
Activity [22]: 33.74%
Activity [23]: 6.84%
Activity [24]: 4.14%
Activity [25]: 23.18%
Activity [26]: 54.03%
Activity [27]: 13.31%
Activity [28]: 57.96%
Activity [29]: 4.8%
inhibition (BaF3 [30]): Dose-dependent-effect
